From the NIST ThermoML archive (doi:10.1016/j.jct.2015.11.023)

Legend:
[1] = wn = mass fraction of the nth substance listed; conditions: for surface tension liquid-gas: Maximal bubble pressure; for mass density: 100 kPa, Liquid, Vibrating tube method
[2] = refractive index (Na D-line) (dimensionless); wn = mass fraction of the nth substance listed; conditions: 100 kPa, Liquid, Standard Abbe refractometry

CCCCC[n+]1ccccc1.N#C[N-]C#N [1-pentylpyridinium dicyanamide] + O
Conditions	mass density [kg/m3]	refractive index	surface tension liquid-gas [mN/m]
[1], 303.15 K, w2 = 0.00124	1049.94	–	–
[1], 303.15 K, w2 = 0.00159	–	–	53.3
[1], 303.15 K, w2 = 0.00269	1049.85	–	–
[1], 303.15 K, w2 = 0.00309	–	–	53.7
[1], 303.15 K, w2 = 0.00423	1049.72	–	–
[1], 303.15 K, w2 = 0.00463	–	–	54
[1], 303.15 K, w2 = 0.00567	1049.59	–	–
[1], 303.15 K, w2 = 0.00611	–	–	54.3
[1], 303.15 K, w2 = 0.00714	1049.48	–	–
[1], 303.15 K, w2 = 0.00762	–	–	54.6
[1], 308.15 K, w2 = 0.00124	1046.92	–	–
[1], 308.15 K, w2 = 0.00159	–	–	53.1
[1], 308.15 K, w2 = 0.00269	1046.83	–	–
[1], 308.15 K, w2 = 0.00309	–	–	53.3
[1], 308.15 K, w2 = 0.00423	1046.7	–	–
[1], 308.15 K, w2 = 0.00463	–	–	53.7
[1], 308.15 K, w2 = 0.00567	1046.57	–	–
[1], 308.15 K, w2 = 0.00611	–	–	54
[1], 308.15 K, w2 = 0.00714	1046.45	–	–
[1], 308.15 K, w2 = 0.00762	–	–	54.3
[1], 313.15 K, w2 = 0.00124	1043.92	–	–
[1], 313.15 K, w2 = 0.00159	–	–	52.8
[1], 313.15 K, w2 = 0.00269	1043.82	–	–
[1], 313.15 K, w2 = 0.00309	–	–	53
[1], 313.15 K, w2 = 0.00423	1043.69	–	–
[1], 313.15 K, w2 = 0.00463	–	–	53.4
[1], 313.15 K, w2 = 0.00567	1043.56	–	–
[1], 313.15 K, w2 = 0.00611	–	–	53.7
[1], 313.15 K, w2 = 0.00714	1043.44	–	–
[1], 313.15 K, w2 = 0.00762	–	–	54
[1], 318.15 K, w2 = 0.00124	1040.93	–	–
[1], 318.15 K, w2 = 0.00159	–	–	52.4
[1], 318.15 K, w2 = 0.00269	1040.82	–	–
[1], 318.15 K, w2 = 0.00309	–	–	52.7
[1], 318.15 K, w2 = 0.00423	1040.7	–	–
[1], 318.15 K, w2 = 0.00463	–	–	53
[1], 318.15 K, w2 = 0.00567	1040.56	–	–
[1], 318.15 K, w2 = 0.00611	–	–	53.3
[1], 318.15 K, w2 = 0.00714	1040.44	–	–
[1], 318.15 K, w2 = 0.00762	–	–	53.6
[1], 323.15 K, w2 = 0.00124	1037.95	–	–
[1], 323.15 K, w2 = 0.00159	–	–	52.1
[1], 323.15 K, w2 = 0.00269	1037.84	–	–
[1], 323.15 K, w2 = 0.00309	–	–	52.3
[1], 323.15 K, w2 = 0.00423	1037.72	–	–
[1], 323.15 K, w2 = 0.00463	–	–	52.7
[1], 323.15 K, w2 = 0.00567	1037.57	–	–
[1], 323.15 K, w2 = 0.00611	–	–	53
[1], 323.15 K, w2 = 0.00714	1037.45	–	–
[1], 323.15 K, w2 = 0.00762	–	–	53.3
[1], 328.15 K, w2 = 0.00124	1034.99	–	–
[1], 328.15 K, w2 = 0.00159	–	–	51.8
[1], 328.15 K, w2 = 0.00269	1034.88	–	–
[1], 328.15 K, w2 = 0.00309	–	–	52
[1], 328.15 K, w2 = 0.00423	1034.75	–	–
[1], 328.15 K, w2 = 0.00463	–	–	52.4
[1], 328.15 K, w2 = 0.00567	1034.61	–	–
[1], 328.15 K, w2 = 0.00611	–	–	52.7
[1], 328.15 K, w2 = 0.00714	1034.48	–	–
[1], 328.15 K, w2 = 0.00762	–	–	53
[1], 333.15 K, w2 = 0.00124	1032.05	–	–
[1], 333.15 K, w2 = 0.00159	–	–	51.5
[1], 333.15 K, w2 = 0.00269	1031.93	–	–
[1], 333.15 K, w2 = 0.00309	–	–	51.8
[1], 333.15 K, w2 = 0.00423	1031.8	–	–
[1], 333.15 K, w2 = 0.00463	–	–	52.1
[1], 333.15 K, w2 = 0.00567	1031.65	–	–
[1], 333.15 K, w2 = 0.00611	–	–	52.4
[1], 333.15 K, w2 = 0.00714	1031.52	–	–
[1], 333.15 K, w2 = 0.00762	–	–	52.7
[1], 338.15 K, w2 = 0.00124	1029.11	–	–
[1], 338.15 K, w2 = 0.00159	–	–	51.3
[1], 338.15 K, w2 = 0.00269	1029	–	–
[1], 338.15 K, w2 = 0.00309	–	–	51.6
[1], 338.15 K, w2 = 0.00423	1028.86	–	–
[1], 338.15 K, w2 = 0.00463	–	–	51.9
[1], 338.15 K, w2 = 0.00567	1028.71	–	–
[1], 338.15 K, w2 = 0.00611	–	–	52.2
[1], 338.15 K, w2 = 0.00714	1028.58	–	–
[1], 338.15 K, w2 = 0.00762	–	–	52.4
[2], 303.15 K, w2 = 0.00159	–	1.5285	–
[2], 303.15 K, w2 = 0.00322	–	1.5282	–
[2], 303.15 K, w2 = 0.00513	–	1.5279	–
[2], 303.15 K, w2 = 0.00661	–	1.5277	–
[2], 303.15 K, w2 = 0.00821	–	1.5274	–
[2], 308.15 K, w2 = 0.00159	–	1.527	–
[2], 308.15 K, w2 = 0.00322	–	1.5268	–
[2], 308.15 K, w2 = 0.00513	–	1.5265	–
[2], 308.15 K, w2 = 0.00661	–	1.5263	–
[2], 308.15 K, w2 = 0.00821	–	1.5261	–
[2], 313.15 K, w2 = 0.00159	–	1.5255	–
[2], 313.15 K, w2 = 0.00322	–	1.5253	–
[2], 313.15 K, w2 = 0.00513	–	1.525	–
[2], 313.15 K, w2 = 0.00661	–	1.5248	–
[2], 313.15 K, w2 = 0.00821	–	1.5245	–
[2], 318.15 K, w2 = 0.00159	–	1.5241	–
[2], 318.15 K, w2 = 0.00322	–	1.5239	–
[2], 318.15 K, w2 = 0.00513	–	1.5236	–
[2], 318.15 K, w2 = 0.00661	–	1.5234	–
[2], 318.15 K, w2 = 0.00821	–	1.5232	–
[2], 323.15 K, w2 = 0.00159	–	1.5228	–
[2], 323.15 K, w2 = 0.00322	–	1.5225	–
[2], 323.15 K, w2 = 0.00513	–	1.5222	–
[2], 323.15 K, w2 = 0.00661	–	1.522	–
[2], 323.15 K, w2 = 0.00821	–	1.5217	–
[2], 328.15 K, w2 = 0.00159	–	1.521	–
[2], 328.15 K, w2 = 0.00322	–	1.5208	–
[2], 328.15 K, w2 = 0.00513	–	1.5205	–
[2], 328.15 K, w2 = 0.00661	–	1.5203	–
[2], 328.15 K, w2 = 0.00821	–	1.5201	–
[2], 333.15 K, w2 = 0.00159	–	1.5192	–
[2], 333.15 K, w2 = 0.00322	–	1.519	–
[2], 333.15 K, w2 = 0.00513	–	1.5188	–
[2], 333.15 K, w2 = 0.00661	–	1.5186	–
[2], 333.15 K, w2 = 0.00821	–	1.5184	–
[2], 338.15 K, w2 = 0.00159	–	1.5177	–
[2], 338.15 K, w2 = 0.00322	–	1.5175	–
[2], 338.15 K, w2 = 0.00513	–	1.5172	–
[2], 338.15 K, w2 = 0.00661	–	1.517	–
[2], 338.15 K, w2 = 0.00821	–	1.5168	–
